Peptide text beside a SMILES is read from it. Bounds are passed on as bounds.

The target in assay [1] is T1, rGOα (recombined Goα protein) (Rattus norvegicus, UniProt P59215).
T1 construct: made in house; host or cells: E. coli (plasmid pT7-7)
The assay is described as follows: GTPase activity assay: GTP hydrolyzed by rGOα reconstituted into phospholipid blisters. Particulars: for EC50: stimulation of rGOα GTPase activity, read-out: concentration giving 50 % of maximum stimulation; for inhibition at 1000 µM: 1 mM concentration of peptide, read-out: inhibition of hydrolysis of GTP by rGOα; for IC50: inhibition of basal GTPase activity of rGOα, read-out: IC 50 (concentration necessary to achieve 50% inhibition). It counts as biochemical. On the procedure: The activity of the peptides was determined by evaluating the quantity of GTP hydrolyzed in the presence of a recombined Goα protein, using the procedures published by Brandt et al., (1983), Biochemistry, 22, 4357-4362 and by Higashijima et al., (1987), J. Biol. Chem., 262, 757-761.
The rGOα was produced by the authors of the present invention by expression in E.coli of the cDNA of the α subunit of the Go protein present in the rat's brain, inserted in register in the bacterial plasmid pt7-7 (Tabor et al., 1985, Proc. Natl. Acad. Sci. USA, 82, 1074-1078).
Compared with natural GOα, rGOα has an N-terminal deletion of 11 amino acids, replaced by another 5 different amino acids because of the cloning strategy adopted. The molecular weight of rGOα is 38.6 Kd.
When the rGOα is reconstituted into phospholipid blisters (by incubation with a phospholipid mixture at 4° C. for 16 hours), its basal GTPase activity reduces to 0.02 min^-1, This experimental condition which approaches that of the natural protein, in the inactivity state, inserted into the cell membrane was chosen to evaluate the effect of the peptides on the hydrolysis of GTP by rGOα.
5 volumes of a solution of rGOα in 50 mM Hepes, pH 8, 1 mM EDTA, 1 mM DTT and 0.02% of Lubrol (HEDL) were mixed with 1 volume of the same buffer containing 0.84% of sodium cholate, 0.05% of dimyristoyl-L-α-phosphatidylcholine, 0.05% of phosphatidylethanolamine from bovine brain and 0.067% of phosphatidyl-serine from bovine brain (as described by Mousli et al., 1990, Immunol. Lett., 25, 355-358) and preincubated at 4° C. overnight.
An aliquot of 32 μl of this solution was incubated at 20° C. for 5 min in a final volume of 50 μl of HEDL containing 1.1 mM MgCl2 and 0.4 μM (γ^-32 p) GTP (10000-30000 cpm/pmol) and the respective peptide at the final concentrations indicated.
The reactions were terminated by adding 750 μl of a 5% suspension of vegetable charcoal in 20 mM phosphoric acid. After agitation and centrifuging, 400 μl of supernatant containing the radioactive phosphate were counted by liquid scintillation.

In the next assay the target is rGOα. The assay is described as follows: GTPγS binding to rGOα to saturation. Conditions: at 20°. On the set-up: species or system rat. For orientation: Binding of GTPγS marks nucleotide exchange on a G protein.

T1 sequence (P59215 13-354): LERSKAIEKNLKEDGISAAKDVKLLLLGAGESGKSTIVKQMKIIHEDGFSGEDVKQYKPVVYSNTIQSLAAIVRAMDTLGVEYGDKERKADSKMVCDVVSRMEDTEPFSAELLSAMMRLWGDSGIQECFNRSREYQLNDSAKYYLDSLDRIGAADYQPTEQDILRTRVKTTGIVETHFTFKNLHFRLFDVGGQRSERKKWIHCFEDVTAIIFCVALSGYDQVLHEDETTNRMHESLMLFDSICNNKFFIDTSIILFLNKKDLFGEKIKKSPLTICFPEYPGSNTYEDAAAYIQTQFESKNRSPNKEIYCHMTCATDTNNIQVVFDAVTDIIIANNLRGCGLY

Turning to `CC[C@H](C)[C@H](N)C(=O)N[C@@H](CC(N)=O)C(=O)N[C@@H](CC(C)C)C(=O)N[C@@H](C)C(=O)N[C@@H](C)C(=O)N[C@@H](CC(C)C)C(=O)N[C@@H](CCCCN)C(=O)N[C@@H](CCCCN)C(=O)N[C@@H](CC(C)C)C(=O)N[C@@H](C)C(=O)N[C@@H](C)C(=O)N[C@@H](CCCCN)C(=O)N[C@H](C(=O)N[C@@H](CC(C)C)C(=O)O)[C@@H](C)CC` [peptide 4] (H-INLAALKKLAAKIL-OH), the EC50 in assay [1] (20° C., 5 min) was found to be 500 µM.

For the compound `CC[C@H](C)[C@H](NC(=O)[C@H](CC(C)C)NC(=O)[C@H](C)NC(=O)[C@H](CCCCN)NC(=O)[C@H](CC(C)C)NC(=O)[C@H](CC(N)=O)NC(=O)[C@H](CC(C)C)NC(=O)[C@H](C)NC(=O)[C@@H](NC(=O)[C@H](CCCCN)NC(=O)[C@@H](N)CC(C)C)[C@@H](C)CC)C(=O)N[C@@H](C)C(=O)N[C@@H](C)C(=O)N[C@@H](CCCCN)C(=O)O` [compound 2] (H-LKIALNLKALIAAK-OH), in assay [1], the inhibition at 1000 µM is more than 90% and the IC50 turned out to be 130 µM.

Take `CC[C@H](C)[C@H](N)C(=O)N[C@@H](CC(N)=O)C(=O)N[C@@H](CC(C)C)C(=O)N[C@@H](CCCCN)C(=O)N[C@@H](C)C(=O)N[C@@H](CC(C)C)C(=O)N[C@@H](C)C(=O)N[C@@H](C)C(=O)N[C@@H](CC(C)C)C(=O)N[C@@H](C)C(=O)N[C@@H](CCCCN)C(=O)N[C@@H](CCCCN)C(=O)N[C@H](C(=O)N[C@@H](CC(C)C)C(N)=O)[C@@H](C)CC` [Mastoparan, mastoparan]: in assay [1] (1 mM of peptide (no additional effect beyond this concentration), 20° C., 5 min), the “increase of GTP hydrolysis” value is on record as 5 times. Further, the “effect on the GTPase activity of rGOα (capacity to activate the protein rGoα)” value in assay [1] (summary in words) is recorded as “stimulate the GTPase activity of rGOα in a manner dependent on the concentration”.

For the compound `CC[C@H](C)[C@H](NC(=O)[C@H](C)NC(=O)[C@H](CCCCN)NC(=O)[C@H](CC(C)C)NC(=O)[C@H](CCCCN)NC(=O)[C@H](C)NC(=O)[C@H](CC(N)=O)NC(=O)[C@@H](N)CC(C)C)C(=O)N[C@@H](C)C(=O)N[C@@H](CC(C)C)C(=O)N[C@@H](C)C(=O)N[C@@H](CC(C)C)C(=O)N[C@H](C(=O)N[C@@H](CCCCN)C(=O)O)[C@@H](C)CC` [peptide 7] (H-LNAKLKAIALALIK-OH), in assay [1], the inhibition at 1000 µM is 63% and the IC50 turned out to be 600 µM.

Consider `CC[C@H](C)[C@H](NC(=O)[C@H](CC(C)C)NC(=O)[C@H](C)NC(=O)[C@H](CCCCN)NC(=O)[C@H](C)NC(=O)[C@H](CC(C)C)NC(=O)[C@H](C)NC(=O)[C@H](CC(C)C)NC(=O)[C@@H](NC(=O)[C@@H](N)CC(N)=O)[C@@H](C)CC)C(=O)N[C@@H](CCCCN)C(=O)N[C@@H](C)C(=O)N[C@@H](CC(C)C)C(=O)N[C@@H](CCCCN)C(=O)O` [peptide 8] (H-NILALAKALIKALK-OH), for which the EC50 in assay [1] (20° C., 5 min) is 250 µM.

As for `Nc1nc2c(ncn2[C@@H]2O[C@H](COP(=O)(O)OP(=O)(O)OP(O)(O)=S)[C@@H](O)[C@H]2O)c(=O)[nH]1` [GTPγ S], at rGOα, the dissociation constant Kd came out at 0.0029 µM.

For `CC[C@H](C)[C@H](NC(=O)[C@H](C)NC(=O)[C@H](CC(C)C)NC(=O)[C@H](C)N)C(=O)N[C@@H](CCCCN)C(=O)N[C@@H](CC(C)C)C(=O)N[C@H](C(=O)N[C@@H](CC(C)C)C(=O)N[C@@H](CC(N)=O)C(=O)N[C@@H](CC(C)C)C(=O)N[C@@H](CCCCN)C(=O)N[C@@H](C)C(=O)N[C@@H](CCCCN)C(=O)N[C@@H](C)C(=O)O)[C@@H](C)CC` [peptide 1] (H-ALAIKLILNLKAKA-OH), in assay [1], the inhibition at 1000 µM came out at 75% and the IC50 was 215 µM.

For orientation: inhibition means the share of the control response that was lost under treatment. As a reminder, the Kd is the equilibrium constant for the complex coming apart. Read a high Kd as a looser complex.

Source of the values: US5519116A, “Peptides representing permutations of the mastoparan sequence” (Enichem S.p.A., priority 1991, dated 1996).
